Experimental data taken from patent publication US8802673B2, “Heterocyclic amine derivatives” (Hoffmann-La Roche Inc, priority 2011, dated 2014).
Each block holds one compound with its values, some of them ahead of it.

Columns and labels:
[1] = target: rat TAAR1 (Rattus norvegicus (Rat), UniProt Q923Y9); test: Radioligand binding assay on rat TAAR1; settings: rat TAAR1 (second value of the cell), HEK-293 membranes; read-out: Ki (μM) mouse/rat
Procedure: (§1) Construction of TAAR Expression Plasmids and Stably Transfected Cell Lines
(§2) For the construction of expression plasmids the coding sequences of human, rat and mouse TAAR 1 were amplified from genomic DNA essentially as described by Lindemann et al.. The Expand High Fidelity PCR System (Roche Diagnostics) was used with 1.5 mM Mg^2+ and purified PCR products were cloned into pCR2.1-TOPO cloning vector (Invitrogen) following the instructions of the manufacturer. PCR products were subcloned into the pIRESneo2 vector (BD Clontech, Palo Alto, Calif.), and expression vectors were sequence verified before introduction in cell lines.
(§3) HEK293 cells (ATCC #CRL-1573) were cultured essentially as described by Lindemann et al. (2005). For the generation of stably transfected cell lines HEK293 cells were transfected with the pIRESneo2 expression plasmids containing the TAAR coding sequences (described above) with Lipofectamine 2000 (Invitrogen) according to the instructions of the manufacturer, and 24 hrs post transfection the culture medium was supplemented with 1 mg/ml G418 (Sigma, Buchs, Switzerland). After a culture period of about 10 d clones were isolated, expanded and tested for responsiveness to trace amines (all compounds purchased from Sigma) with the cAMP Biotrak Enzyme immunoassay (EIA) System (Amersham) following the non-acetylation EIA procedure provided by the manufacturer.
Radioligand Binding Assay on Rat TAAR1
Membrane Preparation and Radioligand Binding
(§4) HEK-293 cells stably expressing rat TAAR1 were maintained at 37° C. and 5% CO2 in DMEM high glucose medium, containing fetal calf serum (10%, heat inactivated for 30 min at 56° C.), penicillin/streptomycin (1%), and 375 μg/ml geneticin (Gibco). Cells were released from culture flasks using trypsin/EDTA, harvested, washed twice with ice-cold PBS (without Ca^2+ and Mg^2+), pelleted at 1,000 rpm for 5 min at 4° C., frozen and stored at −80° C. Frozen pellets were suspended in 20 ml HEPES-NaOH (20 mM, pH 7.4) containing 10 mM EDTA and homogenized with a Polytron (PT 6000, Kinematica) at 14,000 rpm for 20 s. The homogenate was centrifuged at 48,000×g for 30 min at 4° C. Subsequently, the supernatant was removed and discarded, and the pellet resuspended in 20 ml HEPES-NaOH (20 mM, pH 7.4) containing 0.1 mM EDTA using the Polytron (20 s at 14,000 rpm). This procedure was repeated and the final pellet resuspended in HEPES-NaOH containing 0.1 mM EDTA and homogenized using the Polytron. Typically, aliquots of 2 ml membrane portions were stored at −80° C. With each new membrane batch the dissociation constant (Kd) was determined via a saturation curve. […] All compounds were tested at a broad range of concentrations (10 pM to 10 μM) in duplicates. […] The 96 deep well plates were incubated for 1 hr at 4° C. Incubations were terminated by rapid filtration through Unifilter-96 plates (Packard Instrument Company) and glass filters GF/C (Perkin Elmer) presoaked for 1 hr in polyethylenimine (0.3%) and washed 3 times with 1 ml of cold binding buffer. After addition of 45 μl of Microscint 40 (PerkinElmer) the Unifilter-96 plate was sealed and after 1 hr the ratioactivity counted using a TopCount Microplate Scintillation Counter (Packard Instrument Company).

[2] = target: mouse TAAR1 (Mus musculus (Mouse), UniProt Q923Y8); test: Radioligand binding assay on mouse TAAR1; settings: mouse TAAR1 (first value of the cell), HEK-293 membranes; read-out: Ki (μM) mouse/rat
Chain of mouse TAAR1 (Q923Y8 whole entry): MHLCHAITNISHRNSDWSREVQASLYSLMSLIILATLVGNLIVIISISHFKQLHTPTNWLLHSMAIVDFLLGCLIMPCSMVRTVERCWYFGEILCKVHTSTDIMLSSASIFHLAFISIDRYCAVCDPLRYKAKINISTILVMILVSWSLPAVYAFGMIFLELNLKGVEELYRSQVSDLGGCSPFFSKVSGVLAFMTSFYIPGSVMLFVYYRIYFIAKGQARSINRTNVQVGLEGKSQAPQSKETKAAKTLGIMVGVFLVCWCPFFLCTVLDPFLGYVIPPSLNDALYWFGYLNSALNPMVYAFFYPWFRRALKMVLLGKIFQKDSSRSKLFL
Procedure: as §1, §2, §3
Radioligand Binding Assay on Mouse TAAR1
Membrane Preparation and Radioligand Binding.
as §4, with “expressing mouse” for “expressing rat”

Chain of rat TAAR1 (Q923Y9 whole entry): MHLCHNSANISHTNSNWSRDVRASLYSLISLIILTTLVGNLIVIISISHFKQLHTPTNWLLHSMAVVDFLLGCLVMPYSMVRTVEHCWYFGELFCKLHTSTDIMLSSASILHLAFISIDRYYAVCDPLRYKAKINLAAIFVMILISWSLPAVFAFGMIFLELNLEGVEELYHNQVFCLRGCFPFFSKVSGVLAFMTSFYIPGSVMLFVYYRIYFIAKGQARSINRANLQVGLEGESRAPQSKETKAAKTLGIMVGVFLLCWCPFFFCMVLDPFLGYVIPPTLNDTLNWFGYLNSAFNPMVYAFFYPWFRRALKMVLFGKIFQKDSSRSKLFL

Ki [1]: 0.0417 µM
Ki [2]: 0.0051 µM
Structure (SMILES): Clc1ccc(CNc2ccc([C@H]3CNCCO3)cc2)cc1Cl [Example 30, (3,4-Dichloro-benzyl)-((S)-4-morpholin-2-yl-phenyl)-amine]

Ki [1]: 0.222 µM
Ki [2]: 0.0452 µM
Structure (SMILES): Fc1ccc(CNc2ccc([C@H]3CNCCO3)cc2)cc1 [Example 31, (4-Fluoro-benzyl)-((S)-4-morpholin-2-yl-phenyl)-amine]

Ki [1]: 1.24 µM
Ki [2]: 0.0357 µM
Structure (SMILES): Clc1ccc(CNc2ccc([C@H]3CNCCO3)cc2)cn1 [Example 32, (S)—N-((6-Chloropyridin-3-yl)methyl)-4-(morpholin-2-yl)aniline]

Ki [1]: 0.188 µM
Ki [2]: 0.0026 µM
Structure (SMILES): Fc1cc(Nc2ccc([C@H]3CNCCO3)cc2)cnc1Cl [Example 40, (S)-6-Chloro-5-fluoro-N-(4-(morpholin-2-yl)phenyl)pyridin-3-amine]

Ki [1]: 0.0518 µM
Ki [2]: 0.0023 µM
Structure (SMILES): FC(F)(F)c1ccnc(Nc2ccc([C@H]3CNCCO3)cc2)c1 [Example 42, (S)—N-(4-(Morpholin-2-yl)phenyl)-4-(trifluoromethyl)pyridin-2-amine]

Ki [1]: 0.648 µM
Ki [2]: 0.0269 µM
Structure (SMILES): Fc1cncc(Nc2ccc([C@H]3CNCCO3)cc2)c1 [Example 43, (S)-5-Fluoro-N-(4-(morpholin-2-yl)phenyl)pyridin-3-amine]

Ki [1]: 0.0118 µM
Ki [2]: 0.0007 µM
Structure (SMILES): c1ccc2cc(Nc3ccc([C@H]4CNCCO4)cc3)ccc2c1 [Example 44, ((S)-4-Morpholin-2-yl-phenyl)-naphthalen-2-yl-amine]

Ki [1]: 0.0067 µM
Ki [2]: 0.0012 µM
Structure (SMILES): Clc1ccc2nc(Nc3ccc([C@H]4CNCCO4)cc3)ccc2c1 [Example 47, (S)-6-Chloro-N-(4-(morpholin-2-yl)phenyl)quinolin-2-amine]

Ki [1]: 0.104 µM
Ki [2]: 0.0266 µM
Structure (SMILES): FC(F)(F)c1cc(Nc2ccc([C@H]3CNCCO3)cc2)c2cccc(C(F)(F)F)c2n1 [Example 49, (S)—N-(4-(Morpholin-2-yl)phenyl)-2,8-bis(trifluoromethyl)quinolin-4-amine]

Ki [1]: 0.0084 µM
Ki [2]: 0.0005 µM
Structure (SMILES): Clc1cccc2ccc(Nc3ccc([C@H]4CNCCO4)cc3)nc12 [Example 52, (S)-8-Chloro-N-(4-(morpholin-2-yl)phenyl)quinolin-2-amine]

Ki [1]: 0.0045 µM
Ki [2]: 0.0012 µM
Structure (SMILES): Brc1cccc2nc(Nc3ccc([C@H]4CNCCO4)cc3)ccc12 [Example 53, (S)-5-Bromo-N-(4-(morpholin-2-yl)phenyl)quinolin-2-amine]

Ki [1]: 0.0866 µM
Ki [2]: 0.0023 µM
Structure (SMILES): Fc1cc(Br)cnc1Nc1ccc([C@H]2CNCCO2)cc1 [Example 57, (S)-5-Bromo-3-fluoro-N-(4-(morpholin-2-yl)phenyl)pyridin-2-amine]

Further lines, the compound ahead of its results:

Structure (SMILES): FC(F)(F)c1ccc(CNc2ccc([C@H]3CNCCO3)cc2)cn1 [Example 33, (S)-4-(Morpholin-2-yl)-N-((6-(trifluoromethyl)pyridin-3-yl)methyl)aniline]
Ki [1]: 0.544 µM
Ki [2]: 0.047 µM

Structure (SMILES): Clc1ccc(CCNc2ccc([C@H]3CNCCO3)cc2)cc1 [Example 34, [2-(4-Chloro-phenyl)-ethyl]-((S)-4-morpholin-2-yl-phenyl)-amine]
Ki [1]: 0.0181 µM
Ki [2]: 0.0042 µM

Structure (SMILES): Fc1cc(Cl)ccc1CNc1ccc([C@H]2CNCCO2)cc1 [Example 35, (4-Chloro-2-fluoro-benzyl)-((S)-4-morpholin-2-yl-phenyl)-amine]
Ki [1]: 0.188 µM
Ki [2]: 0.0096 µM

Structure (SMILES): CCc1ccc(CNc2ccc([C@H]3CNCCO3)cc2)cc1 [Example 36, (4-Ethyl-benzyl)-((S)-4-morpholin-2-yl-phenyl)-amine]
Ki [1]: 0.163 µM
Ki [2]: 0.0288 µM

Structure (SMILES): Clc1ccc(Nc2ccc([C@H]3CNCCO3)cc2)nc1 [Example 38, (5-Chloro-pyridin-2-yl)-((S)-4-morpholin-2-yl-phenyl)-amine]
Ki [1]: 0.0544 µM
Ki [2]: 0.0011 µM

Structure (SMILES): COc1ccnc(Nc2ccc([C@H]3CNCCO3)cc2)c1 [Example 39, (S)-4-Methoxy-N-(4-(morpholin-2-yl)phenyl)pyridin-2-amine]
Ki [1]: 0.251 µM
Ki [2]: 0.004 µM

Structure (SMILES): FC(F)(F)c1cccnc1Nc1ccc([C@H]2CNCCO2)cc1 [Example 41, (S)—N-(4-(Morpholin-2-yl)phenyl)-3-(trifluoromethyl)pyridin-2-amine]
Ki [1]: 1.08 µM
Ki [2]: 0.27 µM

Structure (SMILES): Brc1ccc(CNc2ccc([C@H]3CNCCO3)cc2)cc1 [Example 45, (4-Bromo-benzyl)-((S)-4-morpholin-2-yl-phenyl)-amine]
Ki [1]: 0.126 µM
Ki [2]: 0.0061 µM

Structure (SMILES): c1ccc2nc(Nc3ccc([C@H]4CNCCO4)cc3)ccc2c1 [Example 46, ((S)-4-Morpholin-2-yl-phenyl)-quinolin-2-yl-amine]
Ki [1]: 0.0643 µM
Ki [2]: 0.0008 µM

Structure (SMILES): Clc1ccc2ncnc(Nc3ccc([C@H]4CNCCO4)cc3)c2c1 [Example 50, (S)-6-Chloro-N-(4-(morpholin-2-yl)phenyl)quinazolin-4-amine]
Ki [1]: 0.0608 µM
Ki [2]: 0.005 µM

Structure (SMILES): Clc1nc2ccccc2cc1CNc1ccc([C@H]2CNCCO2)cc1 [Example 51, (S)—N-((2-Chloroquinolin-3-yl)methyl)-4-(morpholin-2-yl)aniline]
Ki [1]: 0.28 µM
Ki [2]: 0.0363 µM

Structure (SMILES): Clc1cc(Nc2ccc([C@H]3CNCCO3)cc2)nc2ccccc12 [Example 54, (S)-4-Chloro-N-(4-(morpholin-2-yl)phenyl)quinolin-2-amine]
Ki [1]: 0.0138 µM
Ki [2]: 0.0008 µM

Structure (SMILES): Fc1ncccc1Nc1ccc([C@H]2CNCCO2)cc1 [Example 55, (2-Fluoro-pyridin-3-yl)-((S)-4-morpholin-2-yl-phenyl)-amine]
Ki [1]: 1.98 µM
Ki [2]: 0.738 µM

Structure (SMILES): Cc1cc(Br)cnc1Nc1ccc([C@H]2CNCCO2)cc1 [Example 56, (S)-5-Bromo-3-methyl-N-(4-(morpholin-2-yl)phenyl)pyridin-2-amine]
Ki [1]: 0.211 µM
Ki [2]: 0.0372 µM

Structure (SMILES): Clc1cnc(Nc2ccc([C@H]3CNCCO3)cc2)c(Cl)c1 [Example 58, (S)-3,5-Dichloro-N-(4-(morpholin-2-yl)phenyl)pyridin-2-amine]
Ki [1]: 0.584 µM
Ki [2]: 0.0704 µM

Structure (SMILES): Fc1cc(Cl)ccc1Nc1ccc([C@H]2CNCCO2)cc1 [Example 59, (S)-4-Chloro-2-fluoro-N-(4-(morpholin-2-yl)phenyl)aniline]
Ki [1]: 0.207 µM
Ki [2]: 0.0049 µM

Structure (SMILES): CN(c1ccc(Cl)cc1)c1ccc([C@H]2CNCCO2)cc1 [Example 60, (4-Chloro-phenyl)-methyl-((S)-4-morpholin-2-yl-phenyl)-amine]
Ki [1]: 0.758 µM
Ki [2]: 0.0222 µM

Structure (SMILES): Brc1cnc(Nc2ccc([C@H]3CNCCO3)cc2)c(Br)c1 [Example 61, (S)-3,5-Dibromo-N-(4-(morpholin-2-yl)phenyl)pyridin-2-amine]
Ki [1]: 0.502 µM
Ki [2]: 0.0591 µM
